According to patent publication US7915297B2, “Isoxazole derivatives and use thereof” (SK Holdings Co., Ltd., priority 2005, dated 2011):

How the values were obtained:
[1] = system: Wnt/β-catenin signaling (β-catenin activity) in SW480 cell line; experiment: Cell-based Wnt agonist screening, TCF luciferase reporter, SW480 (TCF-FL); set-up: species or system human; conditions: Homo sapiens, % of LiCl (20 mM), 24 h, read-out: Max. Activity (%); for Emax at 120 µM: Con. 120 μM; for Emax at 1 µM: Con. 1 μM; for Emax at 30 µM: Con. 30 μM; for Emax at 60 µM: Con. 60 μM
Outline: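 HEK293 and SW480 lines stably carried a 5X TCF firefly luciferase reporter under G418 selection. Cells (8,000–15,000/well, RPMI 1640 with 5% FBS) were grown 24 h, then treated with compound for 24 h. Luciferase activity was expressed as percent of the 20 mM LiCl positive control.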

[2] = system: ST-2, a murine bone marrow stromal T cell; experiment: Differentiation of ST2 cell line into osteoblasts, alkaline phosphatase activity; type: cell-based; conditions: Mus musculus, 96 h; ST-2 cells, 11 μM compound, 4 days; control treated only with ascorbic acid and β-glycerolphosphate = 100; read-out: ALP Activity (% Control)
Experimental: The derivatives synthesized according to the present invention were assayed for their ability to differentiate stem cells into osteoblasts. In this regard, ST-2, a murine bone marrow stromal T cell, was used to measure the activity of bone-specific alkaline phosphatase, a marker of early-stage osteoblast differentiation. In detail, the cell line was cultured in an MEM supplemented with penicillin-streptomycin (100 Units/mL) and heat-inactivated 5% fetal bovine serum under standard culture conditions (5% CO2, 37° C., 100% relative humidity). […] The suspension was diluted with the same medium to adjust the cell count to 5,000˜10,000 cells per well, and was moved in a 96-well microtiter, subsequently. After being incubated for 24 hrs, the cells were treated in a medium containing 50 μg/ml of ascorbic acid and 5 mM of β-glycerolphosphate with various concentrations of the isoxazole derivatives synthesized in Preparation Examples. During incubation for one to nine days, the Alkaline phosphatase activity was analyzed using a […] Assay kit (Promega, U.S.A.) according to the protocol described in the manual provided by the manufacturer. The activities were measured in cells which had been incubated at 11 μM of each of the compounds for 4 days. Data on the activities of the isoxazole derivatives synthesized are given in Tables 44 to 47 and are expressed as percentages of ALP relative to that measured in the control, which was treated only with ascorbic acid and β-glycerolphosphate. ALP activities according to the concentrations of Derivative (1) are depicted in FIG. 5.

[3] = system: Wnt/β-catenin signaling (β-catenin activity) in HEK293 cell line; experiment: Cell-based Wnt agonist screening, TCF luciferase reporter, HEK293 (TCF-FL); set-up: species or system human; conditions: Homo sapiens, HEK293, 24 h, % of LiCl (20 mM), 24 h, read-out: Max. Activity (%); for Emax at 30 µM: Conc. 30 μM; for Emax at 120 µM: Conc. 120 μM
Text: In order to measure the in vitro activity of compounds of the present invention, two human cancer cell lines, HEK293 and SW480, which have intact Wnt signaling and show APC gene mutation in the Wnt signaling pathway, respectively, were used.
For evaluating the activity of wnt/β-catenin signaling in the cancer cell lines, gene as illustrated in FIG. 1 having β-catenin-binding sites of the Tcf/Lef transcriptional control protein (5 sites of TCF, 5X TCF) and having a fire fly luficerase as a marker protein ascertainable the activity of 5X TCF was introduced into the cells. Treatment with G418 led monoclones of the cell lines, in which the genes were permanently expressed, so as to construct a cell-based Wnt agonist screening system. […] For comparison with the activity of the isoxazole derivatives as Wnt agonists, lithium chloride (LiCl), acting as a positive control for the cell-based Wnt agonist screening system, was used to determine the expression level of the luciferase, and the results are shown in FIG. 3.
The cell lines, in which a cell-based Wnt agonist screening system was constructed, were cultured in RPMI 1640 media supplemented with penicillin-streptomycin (100 Units/mL) and heat-inactivated 5% fetal bovine serum under standard culture conditions (5% CO2, 37° C., 100% relative humidity). […] The suspension was diluted with the same medium to adjust the cell count to 8,000˜15,000 cells per well and was moved then in a 96-well microtiter plate. After being incubated for 24 hrs, the cells were treated with various concentrations of the isoxazole derivatives synthesized in Preparation Examples. Incubation for an additional 24 hours was followed by the quantitative analysis of luciferase activity using a Luciferase Assay kit (Promega, U.S.A.) according to the protocol described in the manual provided by the manufacturer. Data on the activities of the isoxazole derivatives thus synthesized are given in Tables 34 to 43, and are expressed as percentages relative to the activity of the positive control LiCl (20 mM), a well-known agonist of Wnt signaling.

SMILES	Emax at 120 µM [1] [%]	activity at 11 µM [2] [%]	Emax at 30 µM [1] [%]	further results
Cc1cccnc1N1CCN(CCNC(=O)c2cc(-c3ccco3)on2)CC1 [Derivative (190), 5-furan-2-yl-isoxazole-3-carboxylic acid {2-[4-(3-methyl-pyridin-2-yl)-piperazin-1-yl]-ethyl}-amide]	372	269		
O=C(NCCCNc1ccccc1)c1cc(-c2ccco2)on1 [Derivative (201), 5-furan-2-yl-isoxazole-3-carboxylic acid (3-phenylamino-propyl)-amide]		859		Emax at 1 µM [1]: 545%
O=C(NCCCn1cncn1)c1cc(C2CCCCC2)on1 [Derivative (165), 5-cyclohexyl-3-isoxazole-3-carboxylic acid (3-[1,2,4]-triazol-1-yl-propyl)-amide]		92	45	
Cn1cccc1-c1cc(C(=O)NCCn2cncn2)no1 [Derivative (151), 5-(1-methyl-1H-pyrrol-2-yl)-isoxazole-3-carboxylic acid (2-[1,2,4]triazol-1-yl-ethyl)-amide]		151	41	
COc1ccc(N2CCN(CCNC(=O)c3cc(-c4ccco4)on3)CC2)cc1OC [Derivative (186), 5-furan-2-yl-isoxazole-3-carboxylic acid {2-[4-(3,4-dimethoxyphenyl)-piperazin-1-yl]-ethyl}-amide]		272	553	
COc1cccnc1N1CCN(CCNC(=O)c2cc(-c3ccco3)on2)CC1 [Derivative (189), 5-furan-2-yl-isoxazole-3-carboxylic acid {2-[4-(3-methoxy-pyridin-2-yl)-piperazin-1-yl]-ethyl}-amide]		220	238	
O=C(NCCN1CCN(c2ccc(F)cc2)CC1)c1cc(-c2ccco2)on1 [Derivative (179), 5-furan-2-yl-isoxazole-3-carboxylic acid {2-[4-(4-fluorophenyl)-piperazin-1-yl]-ethyl}-amide]		356		Emax at 10 µM ([1]; Con. 10 μM): 73%
O=C(NCCn1cccn1)c1cc(-c2ccco2)on1 [Derivative (39), 5-furan-2-yl-isoxazole-3-carboxylic acid (2-pyrazol-1-yl-ethyl)-amide]		190	344	
COc1ccc(NCCNC(=O)c2cc(-c3ccco3)on2)cc1 [Derivative (200), 5-furan-2-yl-isoxazole-3-carboxylic acid [2-(4-methoxy-phenylamino)-ethyl]-amide]		162	106	
O=C(NCCNC(=O)c1cc(-c2cccs2)on1)c1ccccc1 [Derivative (210), 5-thiophen-2-yl-isoxazole-3-carboxylic acid (2-benzoylamino-ethyl)-amide]		202		Emax at 1 µM [1]: 475%
O=C(NCCNc1ccccn1)c1cc(-c2ccco2)on1 [Derivative (204), 5-furan-2-yl-isoxazole-3-carboxylic acid [2-(pyridin-2-ylamino)-ethyl]-amide]	369	150		
O=C(NCCCn1cnnn1)c1cc(-c2ccco2)on1 [Derivative (52), 5-furan-2-yl-isoxazole-3-carboxylic acid (3-tetrazol-1-yl-propyl)-amide]		438		
O=C(NCCN1CCN(c2ncccc2C(F)(F)F)CC1)c1cc(-c2ccco2)on1 [Derivative (191), 5-furan-2-yl-isoxazole-3-carboxylic acid {2-[4-(3-trifluoromethyl-pyridin-2-yl)-piperazin-1-yl]-ethyl}-amide]		309	91	
O=C(NCCCn1ccnc1)c1cc(N2CCOCC2)on1 [Derivative (161), 5-morpholin-4-yl-isoxazole-3-carboxylic acid (3-imidazol-1-yl-propyl)-amide]	33	89		
CC(C)(C)c1cc(C(=O)NCCCn2ccnc2)no1 [Derivative (167), 5-tert-butyl-3-isoxazole-3-carboxylic acid (3-imidazol-1-yl-propyl)-amide]	37	276		
O=C(NCCN1CCN(c2ccc([N+](=O)[O-])cc2)CC1)c1cc(-c2ccco2)on1 [Derivative (180), 5-furan-2-yl-isoxazole-3-carboxylic acid {2-[4-(4-nitrophenyl)-piperazin-1-yl]-ethyl}-amide]	45	181		
O=C(NCCS(=O)(=O)Nc1ccccc1)c1cc(-c2cccs2)on1 [Derivative (220), 5-thiophen-2-yl-isoxazole-3-carboxylic acid (2-phenylsulfamoyl-ethyl)-amide]	182	187		
CC(C)c1ccc(NCCNC(=O)c2cc(-c3ccco3)on2)cc1 [Derivative (199), 5-furan-2-yl-isoxazole-3-carboxylic acid [2-(4-isopropyl-phenylamino)-ethyl]-amide]		63	45	
Nc1cccc(-c2cc(C(=O)NCCCn3ccnc3)no2)c1 [Derivative (119), 5-(3-amino-phenyl)-isoxazole-3-carboxylic acid (3-imidazol-1-yl-propyl)-amide]	43			Emax at 30 µM [3]: < 20%; Emax at 120 µM [3]: 43%
O=C(NCCn1ccnn1)c1cc(-c2ccc(F)cc2)on1 [Derivative (90), 5-(4-fluoro-phenyl)-isoxazole-3-carboxylic acid (2-[1,2,3]triazol-1-yl-ethyl)-amide]			92	Emax at 30 µM [3]: 92%
O=C(NCCCn1ccnc1)c1cc(-c2ccccc2[N+](=O)[O-])on1 [Derivative (112), 5-(2-nitro-phenyl)-isoxazole-3-carboxylic acid (3-imidazol-1-yl-propyl)-amide]	51			Emax at 120 µM [3]: 51%
O=C(NCCc1cccc(F)c1)c1cc(-c2ccco2)on1 [Derivative (17), 5-furan-2-yl-isoxazole-3-carboxylic acid [2-(3-fluoro-phenyl)-ethyl]-amide]				Emax at 60 µM [1]: 200%; Emax at 30 µM [3]: < 20%
Nc1ccccc1NC(=O)c1cc(-c2ccco2)on1 [Derivative (3), 5-furan-2-yl-isoxazole-3-carboxylic acid (2-amino-phenyl)-amide]				Emax at 40 µM ([1]; Con. 40 μM): 331%; Emax at 30 µM [3]: < 20%
O=C(O)c1cn(CCCNC(=O)c2cc(-c3ccco3)on2)cn1 [Derivative (59), 1-{3-[(5-furan-2-yl-isoxazole-3-carbonyl)-amino]-propyl}-1H-imidazole-4-carboxylic acid]				Emax at 60 µM [1]: 592%; Emax at 30 µM [3]: < 20%
COc1cccc(-c2cc(C(=O)NCCCn3ccnc3)no2)c1 [Derivative (100), 5-(3-methoxy-phenyl)-isoxazole-3-carboxylic acid (3-imidazol-1-yl-propyl)-amide]	59			Emax at 120 µM [3]: 59%
